Marks after values point to notes of the source that are not given here.
How the values were obtained:
[1] = tested on: human breast cancer cells (DS and DR); test: Single-cell fura-2 [Ca2+]i imaging, DS and DR human breast cancer cells (statements across lines); format: cell-based; settings: for Effect on decay kinetics of ATP-evoked response: 2 or 24 hr, VER/CSA in wt or MCF-7/ADR, GEN/PRO in wt or MCF-7/VP; for Effect of acute pre-treatment on ATP-induced [Ca2+]i responses: 10 min pre-treatment, VER 25 uM, CSA 10 uM, GEN 100 uM, PRO 2 mM
Procedure: (§6) Cells, grown on 25 mm round, 1 mm-thick glass coverslips were loaded with cell-permeable fura-2 AM (5 uM; Molecular Probes, Eugene, Oreg.) at 37° C. in growth medium for 30-60 min. […] Cells were then thoroughly washed with buffer H/H (Ham's F-10 nutrient mixture supplemented with 20 mM Na-HEPES, pH 7.4) and let sit for 10 min at room temperature to allow complete fura-2 AM de-esterification. […] For each coverslip, 10-99 cells were simultaneously imaged in a given microscopic field and [Ca^2+]1 was recorded from each individual cell in resting and stimulated conditions. Single Ca^2+ profiles were averaged to yield [Ca^2+]1 population means (±S.E.M.) that were plotted versus time.
(§7) Cells were grown as monolayers on glass supports and labeled with the cell-permeable fluorescent dye, Fura-2 (Molecular Probes, Inc.).
(§8) Basal [Ca^2+]1 levels and responses to ATP (50-100 uM), UTP (50-100 uM), BK (10 uM), THR (5 uM), or TG (1 uM) were studied in single cells. […] Ca^2+ responses were compared between pairs of DS and DR clones tested in parallel (MCF-7/ADR cells were compared to their parental wt, DS line obtained from Georgetown University; MCF-7/Ad-Vp cells were compared to the NIH wt, DS line; other DR clones were compared mainly with wt, DS MCF-7 cells from ATCC; C6 clones resistant to doxorubicin were compared to their wild type parental line.
Human breast cancer cells loaded with Fura-2, were exposed to various agonists and [Ca^2+]1 responses from single cells were recorded.
(§9) DR and DS cells were then exposed to the modulators for 2 or 24 hr and challenged with ATP.

MCF-7/C4 cells = test: Single-cell fura-2 [Ca2+]i imaging, MCF-7/C4 drug-resistant cells; format: cell-based, human; settings: for Fold [Ca2+]i increase evoked by agonist: mean ± S.E.M.
Excerpt: (§1) More specifically, human breast cancer cell (“bc”) lines were obtained from the following sources: wild type (“wt”), estrogen receptor-positive MCF-7 cells were obtained from three different sources: American Type Culture Collection (ATCC, Manassas, Va.), the Lombardi Cancer Center, Georgetown University (Washington, D.C.) and the National Cancer Institute, NIH (Bethesda, Md.) and will be referred to as “wt”, DS MCF-7 throughout the paper. Wild type, estrogen receptor-negative MDA-MB-231 cells were obtained from the Lombardi Cancer Center, Georgetown University. Five DR, MCF-7-derived clonal cell lines were used in this study. MCF-7/ADR (selected by exposure and resistance to adriamycin, a DNA intercalating agent and DNA topoisomerase II inhibitor; (Vickers, P. J. et al. Mol. Endocrinol. 2:886-892, 1988) were from the Lombardi Cancer Center, Georgetown University; MCF-7/C4 (selected, after mutagenesis, for resistance to camptothecin, a DNA topoisomerase I inhibitor) were obtained from Dr. Y. Pommier (NCI, NIH, Bethesda, Md.) (Fujimori, A. et al. Mol. Pharmacol. 50:1472-1478, 1996); MCF-7/VP cells (selected by exposure and resistance to VP-16 etoposide, a DNA topoisomerase II inhibitor; Schneider, E. et al. Cancer Res. 54:152-158, 1994) were obtained from Dr. E. Schneider, Wadsworth Center, New York State Dept. of Health, Albany, N.Y.; MCF-7/Melph cells (selected by exposure and resistance to melphalan, a DNA alkylating agent; Moscow, J A et al. Br. J. Cancer 68:732-737, 1993) were obtained from Dr. J. Moscow, University of Kentucky, Lexington, Ky.
(§2) For data mentioned below, [Ca^2+]1 was measured by single-cell fura-2 excitation ratio imaging as previously described (DeBernardi, M. A. et al. Mol Pharmacol 43:451-58, 1993). Cells, grown on 25 mm round, 1 mm-thick glass coverslips were loaded with cell-permeable fura-2 AM (5 uM; Molecular Probes, Eugene, Oreg.) at 37° C. in growth medium for 30-60 min. MCF-7/ADR, MCF-7/Ad-Vp, and C6-B and E cells were difficult to load with fura-2 AM, likely reflecting a high degree of dye extrusion (Homolya, L. et al. J Biol. Chem. 268:21493-96, 1993). […] Cells were then thoroughly washed with buffer H/H (Ham's F-10 nutrient mixture supplemented with 20 mM Na-HEPES, pH 7.4) and let sit for 10 min at room temperature to allow complete fura-2 AM de-esterification. Cells were imaged at room temperature in H/H buffer using an Attofluor RatioVision Digital Fluorescence Microscopy System (Atto Bioscience, Rockville, Md.) equipped with a Zeiss Axiovert 135 microscope and a F-Fluar 40×, 1.3 na, oil-immersion objective. Fura-2 was excited at 334 and 380 nm with the emission monitored at >510 nm; the 334/380 nm excitation ratio increases as a function of the [Ca^2+]1. Calibration was done in vitro with 10 uM fura-2 pentapotassium salt in the presence of 1 mM CaCl2 or 1 mM EGTA and the 334/380 nm excitation ratio was converted to [Ca^2+]1 nM values (Grynkiewicz et al J Biol Chem 260:3440-3450, 1985). For each coverslip, 10-99 cells were simultaneously imaged in a given microscopic field and [Ca^2+]1 was recorded from each individual cell in resting and stimulated conditions. Single Ca^2+ profiles were averaged to yield [Ca^2+]1 population means (±S.E.M.) that were plotted versus time. […]
(§3) Single cell Ca^2+ dynamics were monitored by single cell fluorescence digital imaging according to the method previously described by DeBernardi, M. A. et al. Mol Phamacol 43: 451-458 (1993). […]

[2] = tested on: C6 rat glioblastoma clone B; test: Single-cell fura-2 [Ca2+]i imaging, C6 clone B; format: cell-based
Procedure: (§4) C6 rat glioblastoma cell lines: Wild type cells and progressively doxorubicin-resistant clones were obtained from Dr. J. Robert, Institute Bergonie, Bordeaux, France. Clones were selected by exposure to increasing doses of doxorubicin: Clone A, 0.001 μg/ml; Clone B, 0.1 μg/ml, and Clone E, 0.5 μg/ml.
(§5) For data mentioned below, [Ca^2+]1 was measured by single-cell fura-2 excitation ratio imaging as previously described (DeBernardi, M. A. et al. Mol Pharmacol 43:451-58, 1993). Cells, grown on 25 mm round, 1 mm-thick glass coverslips were loaded with cell-permeable fura-2 AM (5 uM; Molecular Probes, Eugene, Oreg.) at 37° C. in growth medium for 30-60 min. […] Cells were imaged at room temperature in H/H buffer using an Attofluor RatioVision Digital Fluorescence Microscopy System (Atto Bioscience, Rockville, Md.) equipped with a Zeiss Axiovert 135 microscope and a F-Fluar 40×, 1.3 na, oil-immersion objective. Fura-2 was excited at 334 and 380 nm with the emission monitored at >510 nm; the 334/380 nm excitation ratio increases as a function of the [Ca^2+]1. […] For each coverslip, 10-99 cells were simultaneously imaged in a given microscopic field and [Ca^2+]1 was recorded from each individual cell in resting and stimulated conditions. […]

[3] = tested on: C6 rat glioblastoma clone A; test: Single-cell fura-2 [Ca2+]i imaging, C6 clone A; format: cell-based
Procedure: as §4, §5

MDA-MB-231 cells = test: Single-cell fura-2 [Ca2+]i imaging, MDA-MB-231 wt cells; format: cell-based, human; settings: for Fold [Ca2+]i increase evoked by agonist: mean ± S.E.M.
Excerpt: as §1, §2, §3

C6 DR clones A, B and E = test: Single-cell fura-2 [Ca2+]i imaging, all C6 DR clones; format: cell-based, rat; settings: all the clones
Procedure: as §4, §5

[4] = tested on: C6 rat glioblastoma clone E; test: Single-cell fura-2 [Ca2+]i imaging, C6 clone E; format: cell-based
Procedure: as §4, §5

MCF-7/VP cells = test: Single-cell fura-2 [Ca2+]i imaging, MCF-7/VP drug-resistant cells; format: cell-based, human; settings: mean ± S.E.M.
Procedure: as §6, §7, §8
(§10) Cells were labeled with Fura-2 and imaged. After 30-60 sec., the agonists were applied and calcium responses were recorded in single cells. The fold increase in [Ca^2+]1 were calculated and the average values from all the experiments were used in this table.

MCF-7 wt cells = test: Single-cell fura-2 [Ca2+]i imaging, MCF-7 wt drug-sensitive cells; format: cell-based, human; settings: for Fold [Ca2+]i increase evoked by agonist: mean ± S.E.M.
Excerpt: More specifically, human breast cancer cell (“bc”) lines were obtained from the following sources: wild type (“wt”), estrogen receptor-positive MCF-7 cells were obtained from three different sources: American Type Culture Collection (ATCC, Manassas, Va.), the Lombardi Cancer Center, Georgetown University (Washington, D.C.) and the National Cancer Institute, NIH (Bethesda, Md.) and will be referred to as “wt”, DS MCF-7 throughout the paper. […] Five DR, MCF-7-derived clonal cell lines were used in this study.
as §6, §7, §8, §10
(§11) Cells were loaded with Fura-2 and imaged in the absence or presence of EGTA, which is a calcium chelator. Cells were challenged with ATP and Ca responses were recorded. The magnitude and decay t1/2 of the responses were calculated and the respective mean of all the experiments was compared.

MCF-7/ADR cells = test: Single-cell fura-2 [Ca2+]i imaging, MCF-7/ADR drug-resistant cells; format: cell-based, human; settings: for Fold [Ca2+]i increase evoked by agonist: mean ± S.E.M.
Procedure: as §6, §7, §8, §10, §11, §9

MCF-7/AdVp cells = test: Single-cell fura-2 [Ca2+]i imaging, MCF-7/Ad-Vp drug-resistant cells; format: cell-based, human; settings: mean ± S.E.M.
Procedure: as §6, §7, §8, §10

[5] = tested on: C6 rat astrocytoma clone A; settings: cited from earlier work
[6] = tested on: C6 rat astrocytoma clone B; settings: cited from earlier work
[7] = tested on: C6 rat astrocytoma clone E; settings: cited from earlier work
MCF-7/Melph cells = test: Single-cell fura-2 [Ca2+]i imaging, MCF-7/Melph drug-resistant cells; format: cell-based, human; settings: mean ± S.E.M.

## O=c1c(-c2ccc(O)cc2)coc2cc(O)cc(O)c12 [GEN, genistein]
[1]
  Effect on decay kinetics of ATP-evoked response: not affected
  Effect of acute pre-treatment on ATP-induced [Ca2+]i responses: did not affect

## C/C=C(/C)C(=O)O[C@H]1C(C)=C2[C@H]([C@@H]1OC(=O)CCCCCCC)[C@@](C)(OC(C)=O)C[C@H](OC(=O)CCC)[C@@]1(O)[C@H]2OC(=O)[C@@]1(C)O [TG, thapsigargin]
MCF-7/C4 cells
  Fold [Ca2+]i increase evoked by agonist: 3.4 ± 0.8 (n = 7) fold
[2]
  Induced [Ca2+]i increase compared with C6 parental cells: much reduced response
[3]
  Induced [Ca2+]i increase compared with C6 parental cells: greater
MDA-MB-231 cells
  Fold [Ca2+]i increase evoked by agonist: 3.5 ± 0.9 (n = 3) fold
C6 DR clones A, B and E
  [Ca2+]i decay kinetics after stimulation, compared with wild type cells: comparable or faster
[4]
  Induced [Ca2+]i increase compared with C6 parental cells: much reduced response
MCF-7/VP cells
  Fold [Ca2+]i increase evoked by agonist: 1.5 ± 0.1 (n = 6) fold
MCF-7 wt cells
  Fold [Ca2+]i increase evoked by agonist: 2.8 ± 0.5 fold
MCF-7/ADR cells
  Fold [Ca2+]i increase evoked by agonist: 2.7 ± 0.7 fold
[1]; all DR clones and MDA-MB-231 wt, except MCF-7 wt and MCF-7/VP
  [Ca2+]i increase when applied after ATP: able to increase
[1]; all clones, applied as the first drug
  Fold increase in [Ca2+]i: ~3 fold
MCF-7/AdVp cells
  Fold [Ca2+]i increase evoked by agonist: 2.4 ± 0.7 fold

## CCCN(CCC)S(=O)(=O)c1ccc(C(=O)O)cc1 [PRO, probenecid]
[1]
  Effect on decay kinetics of ATP-evoked response: not affected
  Effect of acute pre-treatment on ATP-induced [Ca2+]i responses: did not affect

## COc1cccc2c1C(=O)c1c(O)c3c(c(O)c1C2=O)C[C@@](O)(C(=O)CO)C[C@@H]3O[C@H]1C[C@H](N)[C@H](O)[C@H](C)O1 [adriamycin]
[5]
  Fold resistance (dose to kill 50% of DR cells vs wt, DS cells): 7 fold
[6]
  Fold resistance (dose to kill 50% of DR cells vs wt, DS cells): 33 fold
[7]
  Fold resistance (dose to kill 50% of DR cells vs wt, DS cells): 400 fold

## O=c1ccn([C@@H]2O[C@H](COP(=O)(O)OP(=O)(O)OP(=O)(O)O)[C@@H](O)[C@H]2O)c(=O)[nH]1 [UTP]
MCF-7/Melph cells
  Fold [Ca2+]i increase evoked by agonist: 3.7 ± 0.3 fold
MCF-7/VP cells
  Fold [Ca2+]i increase evoked by agonist: 5.2 ± 1.9 fold
MCF-7 wt cells
  Fold [Ca2+]i increase evoked by agonist: 6.0 ± 1.3 fold
MCF-7/ADR cells
  Fold [Ca2+]i increase evoked by agonist: 2.2 ± 0.3 fold
MCF-7/AdVp cells
  Fold [Ca2+]i increase evoked by agonist: 3.7 ± 0.8 fold

## α-thrombin
MCF-7/C4 cells
  Fold [Ca2+]i increase evoked by agonist: 3.3 ± 0.3 (n = 3) fold
MDA-MB-231 cells
  Fold [Ca2+]i increase evoked by agonist: 13.5 ± 5.1 fold
MCF-7 wt cells
  Fold [Ca2+]i increase evoked by agonist: 2.8 ± 0.1 (n = 3) fold
MCF-7/ADR cells
  Fold [Ca2+]i increase evoked by agonist: 2.8 ± 1.1 (n = 3) fold

## Nc1ncnc2c1ncn2[C@@H]1O[C@H](COP(=O)(O)OP(=O)(O)OP(=O)(O)O)[C@@H](O)[C@H]1O [ATP]
MCF-7/C4 cells; EGTA-containing Buffer
  ATP-evoked [Ca2+]i, fold increase: 4.9 ± 0.4 fold
MCF-7/C4 cells; Standard Buffer
  ATP-evoked [Ca2+]i, fold increase: 5.8 ± 0.9 fold
MCF-7/C4 cells
  Fold [Ca2+]i increase evoked by agonist: 5.9 ± 0.8 (n = 12) fold
MCF-7/Melph cells
  Fold [Ca2+]i increase evoked by agonist: 16.0 ± 6.1 fold
MDA-MB-231 cells; EGTA-containing Buffer
  ATP-evoked [Ca2+]i, fold increase: 26.0 ± 8.1 fold
MDA-MB-231 cells; Standard Buffer
  ATP-evoked [Ca2+]i, fold increase: 16.5 ± 4.8 fold
MDA-MB-231 cells
  Fold [Ca2+]i increase evoked by agonist: 16.5 ± 4.8 fold
MCF-7/VP cells
  Fold [Ca2+]i increase evoked by agonist: 4.4 ± 1.2 (n = 11) fold
MCF-7 wt cells; EGTA-containing Buffer
  ATP-evoked [Ca2+]i, fold increase: 6.2 ± 2.1 fold
MCF-7 wt cells; Standard Buffer
  ATP-evoked [Ca2+]i, fold increase: 8.1 ± 2.4^b fold
MCF-7 wt cells
  Fold [Ca2+]i increase evoked by agonist: 7.9 ± 1.8^a (n = 67) fold
MCF-7/ADR cells; EGTA-containing Buffer
  ATP-evoked [Ca2+]i, fold increase: 2.4 ± 0.3 fold
MCF-7/ADR cells; Standard Buffer
  ATP-evoked [Ca2+]i, fold increase: 3.7 ± 0.7 fold
MCF-7/ADR cells
  Fold [Ca2+]i increase evoked by agonist: 2.9 ± 0.7 (n = 25) fold
[1]; MCF-7/ADR and MCF-7/C4 cells, EGTA vs standard buffer
  ATP-increased [Ca2+]i decay kinetics faster in absence than in presence of extracellular Ca2+: ≥ 60%
[1]; MCF-7/C4, MCF-7/VP and MCF-7/Ad-Vp cells
  [Ca2+]i increase when applied following TG: modest and transient
[1]; MCF-7 and MDA-MB-231 wt cells, EGTA vs standard buffer
  ATP-increased [Ca2+]i decay kinetics faster in Ca2+-free conditions: ≤ 40%
[1]; MCF-7 wt and MCF-7/ADR cells
  Ca2+ response evoked when applied following TG: failed to evoke
MCF-7/AdVp cells
  Fold [Ca2+]i increase evoked by agonist: 4.5 ± 1.2 (n = 12) fold

From patent US7416893B2, “Methods for diagnosing drug-resistant cancer cells or for identifying chemotherapeutic agents by measuring anomalous intracellular ion and/or second messenger dynamics” (Atto Bioscience, priority 2002, dated 2008)
